According to patent US20030109581A1, “Chemical attractants for yellowjacket wasps” (priority 2001, published 2003):

Columns and labels:
Vespula maculifrons = experiment: Field trap captures, BARC-W, 9 days in September/October; format: in vivo
Method: (§1) Field tests were carried out using lures prepared as described in Example 1. Traps baited with various prepared lures, in addition to unbaited control traps, were hung from trees or fences at three locations: Beltsville Agricultural Research Center-West (BARC-W), Beltsville, Md.; University of Maryland Apiary; and a private residence, Silver Spring, Md., with apple trees on the property. Most tests were conducted late in the season when populations of yellowjackets were greatest. After exposure in the field for varying periods of time, traps were brought to the laboratory for sorting and counting insects by species.
The equivalence of T vs. L was tested along with the effect of B and the possible synergism of HB. Six chemical treatments in replicates of three were tested over a period of 9 days in September/October at BARC-W: IB/AA; HB+A/T/B; IB/AA+A/T;
The test also corroborates earlier results indicating localized distribution of yellowjacket species since no V. squamosa were captured and only one individual of V. germanica was caught. The synergistic effect between IB/AA and the novel blends was also confirmed.
Polyvinyl chloride (PVC) plugs containing an about 16% load of volatiles were prepared. For purposes of example, lures containing (E)-2-hexenal diethyl acetal, A (Bedoukian, Inc., Danbury, Conn.) and linalool, L (Aldrich Chemicals, Milwaukee, Wis.) are described. […]

[1] = system: Vespula maculifrons (eastern yellowjacket); experiment: Field trap captures, BARC-W, 7 days in September (FIG. 1); format: in vivo
Method: as §1
In initial experiments, the equivalence of H vs. A was tested along with the synergism between IB/AA and H/T/B or A/T/B blends. […] The use of acetal (A) is considered more desirable than hexenal (H) for this type of lure because of its lower volatility and greater stability.
Polyvinyl chloride (PVC) plugs containing an about 16% load of volatiles were prepared. For purposes of example, lures containing (E)-2-hexenal diethyl acetal, A (Bedoukian, Inc., Danbury, Conn.) and linalool, L (Aldrich Chemicals, Milwaukee, Wis.) are described.
PVC resin (200 g) was mixed thoroughly with 60 ml dioctyl phthalate, a blend of 30 ml of A with 20 ml of L was poured into the plasticized PVC and mixed. […]

SMILES: OCc1ccccc1 [B, benzyl alcohol]
- effect of B on lure activity (Vespula maculifrons): is not essential for lure activity

SMILES: CCC/C=C/C(OCC)OCC [A, (E)-2-hexenal diethyl acetal]
- equivalence of H vs. A [1]: can effectively replace H in this system

SMILES: C=CC(C)(O)CCC=C(C)C (stereo not drawn) [L, linalool]
- equivalence of T vs. L (Vespula maculifrons): effectively substitutes for T
